Reference: patent US20030008922A1, “Multiple drug resistance reversal agent” (priority 2002, published 2003)

How the values were obtained:
Pgp [1] = biological target: T1, Pgp (Homo sapiens, UniProt P08183); assay: Pgp ATPase activity (ATP-hydrolysis); type: biochemical; settings: values >1 represent stimulation, values <1 represent inhibition
Protocol: (§1) Pgp ATPase stimulation activity was determined along with displacement of the prazosin analog, iodoarylazidoprazosin (^125IAAP). Ambudkar, S. V. Methods Enzymol 1998, 292: 504-514; Dey, S. et al. Methods Enzymol. 1998, 292: 318.
(§2) The effect of the homodimers of the present invention on ATPase activity and IAAP binding to Pgp are very potent. ATPase stimulation reaches a maximum at low concentration (1 μM) and steadily drops off as the concentration is increased (not shown). In contrast with the other homodimers, the X=5 compound slowly achieves maximum stimulation up to 50 μM and this level is maintained as the concentration increases. The other dimers are similar to the monomeric compounds where maximum stimulation is achieved and rapidly drops off as concentration increases. More surprising are the Pgp displacement of photoaffinity labeled substrate analog by the heterodimers. For example, with the heterodimer where X=12 is shown to bind tightly at 1.7 μM.

Pgp [2] = biological target: T1, Pgp; assay: Inhibition of 125IAAP binding to Pgp (photoaffinity substrate displacement)
Protocol: as §1, §2

T1 sequence (P08183 whole entry): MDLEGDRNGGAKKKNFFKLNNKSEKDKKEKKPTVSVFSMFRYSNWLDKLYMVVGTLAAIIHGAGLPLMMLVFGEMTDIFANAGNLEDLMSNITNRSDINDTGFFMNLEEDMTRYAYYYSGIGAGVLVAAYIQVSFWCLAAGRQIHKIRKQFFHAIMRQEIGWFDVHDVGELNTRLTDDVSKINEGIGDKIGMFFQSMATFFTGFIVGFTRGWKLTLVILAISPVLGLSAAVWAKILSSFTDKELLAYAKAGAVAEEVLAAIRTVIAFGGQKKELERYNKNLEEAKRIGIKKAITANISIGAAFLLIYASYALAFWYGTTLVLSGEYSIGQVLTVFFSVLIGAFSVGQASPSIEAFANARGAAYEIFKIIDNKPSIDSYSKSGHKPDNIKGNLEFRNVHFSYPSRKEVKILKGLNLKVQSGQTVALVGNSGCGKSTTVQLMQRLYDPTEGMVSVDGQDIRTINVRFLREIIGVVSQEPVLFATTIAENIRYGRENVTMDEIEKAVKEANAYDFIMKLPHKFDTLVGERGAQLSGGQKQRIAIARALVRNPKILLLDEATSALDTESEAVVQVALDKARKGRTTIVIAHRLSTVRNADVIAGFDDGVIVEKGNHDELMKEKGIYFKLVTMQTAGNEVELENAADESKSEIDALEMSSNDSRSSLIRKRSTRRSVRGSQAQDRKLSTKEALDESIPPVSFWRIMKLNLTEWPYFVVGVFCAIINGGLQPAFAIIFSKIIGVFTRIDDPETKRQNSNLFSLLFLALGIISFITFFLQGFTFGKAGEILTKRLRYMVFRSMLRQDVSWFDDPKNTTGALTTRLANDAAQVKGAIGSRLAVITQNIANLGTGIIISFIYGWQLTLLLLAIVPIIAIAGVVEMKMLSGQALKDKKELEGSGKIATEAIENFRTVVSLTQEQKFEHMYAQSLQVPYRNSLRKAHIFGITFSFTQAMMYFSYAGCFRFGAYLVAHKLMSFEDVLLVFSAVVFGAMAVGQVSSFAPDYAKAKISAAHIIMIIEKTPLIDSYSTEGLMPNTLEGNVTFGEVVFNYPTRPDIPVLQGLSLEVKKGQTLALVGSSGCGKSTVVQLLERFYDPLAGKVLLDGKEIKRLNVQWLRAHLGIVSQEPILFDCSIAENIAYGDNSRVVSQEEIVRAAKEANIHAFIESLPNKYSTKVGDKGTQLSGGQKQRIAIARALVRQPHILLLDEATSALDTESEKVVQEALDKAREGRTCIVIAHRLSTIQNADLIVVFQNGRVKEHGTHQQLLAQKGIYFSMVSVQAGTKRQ

ATPase activity (Pgp [1]): 0.34 fraction of control
Ki (Pgp [2]): 7.6 µM
SMILES: CC(=CCCC#CC=CC(C)C(O)C(C)=CCCc1ccc2ccccc2c1)C(=O)NCCOCCOCCOCCOCCOCCO (centres unmarked) [compound 16]
